Test results as given in US20230190703A1, “TREATING SAR-COV-2 RELATED HEALTH PROBLEMS” (priority 2021, published 2023).

What was measured:
U937 cells [1] = format: cell-based, human
U937 cells [2] = assay: caspase 9 assay; format: cell-based, human; details: with SPK
Experimental: (§1) The cells used in this example originated from the cell line U937 cells and were purchased from ATCC.
The cells were treated in a 6-well plate with the treatment plan of control, A1 10 μM, A2 10 μM, SPK10 μM, A1+SPK10 μM, and A2+SPK10 μM for 24 hours and collected in a 1.5 ml tube. Then, Colo cells were lysed by freezing and thawing 4 times. Then, 50 μl of caspase assay buffer will be added to every well of an empty 96-well plate. Also, 50 μl of lysis buffer will be added to the blank wells and 45 μl added to the treatment and control wells. 5 μl of lysed cells will be added to each treatment well with 5 μl of pNA Substrate Solution indeed to every well. The plate will then be taken for a reading at zero time point using a microplate reader at 405 nm. Afterwards, the plate will be covered and incubated at 37 degrees Celsius. […] The data from the Caspase Assay will be analyzed by calculating the change in optical density per minute (ΔOD). The ΔOD is obtained through subtracting the sample's start OD from the sample's final OD to determine the overall change in absorbance. The ΔOD/minutes is calculated by taking the ΔOD and dividing by the overall time in minutes. The ΔOD per minute of each sample is compared to the control by a percent change to determine the activity of caspase and apoptosis. The OD of the blank samples are subtracted from the OD of the treated sample to normalize the data and ensure minimal interference.

U937 cells [3] = assay: LDH assay (percent cytotoxicity); format: cell-based, human; details: for cytotoxicity decrease: 10 μM, cytotoxicity induced by SPK; for effect on SPK-induced cytotoxicity at higher concentration: as concentrations increased (100 μM); for effect on cytotoxic effect of SPK (LDH): combined with SPK
Experimental: as §1
10 μls of chemicals provided by ATCC were added into a 96-well plate with the treatment plan of control, control, control, SPK 10 μM, A1 10 μM, A1 100 μM, A2 10 μM, A2 100 μM, SPK+A1 10 μM, SPK+A1 100 μM, SPK+A2 10 μM, and SPK+A2 100 μM. After incubation for 48 hours, 30 μls of media from each well were removed and added into another 96 well plate labeled as released LDH. 30 microliters of LDH substrate mix were added to the released LDH plate to measure the released LDH by the cells from the treatments. This plate was left at room temperature and away from direct light for 30 minutes. After 30 minutes, 30 μls of LDH stop solution was added to each well to terminate the assay and prevent further color changes. The plate was placed in a microplate reader and optical density (OD) was determined for each sample at 490 nm. Another reading at 655 nm was performed to determine if there was any background interference with the reading. Then, 10 μls of LDH lysis buffer were added to the original plate containing the cells to lyse all the cells and to measure a total or maximum LDH for each sample. Another empty 96 well plate was then labeled total LDH. 30 μls of the cell lysate and media were transferred from the original plate containing the lysed cells into the empty 96 well plate labeled as total LDH. 30 μls of LDH substrate mix were added to each sample to measure the total LDH. The plate was left at room temperature for 30 minutes away from direct light. After the 30 minutes, 30 μls of LDH stop solution were added to each well to terminate the experiment. The OD of the total LDH plate was measured following the same measurement steps for the released LDH. The data collected from the 490 nm wavelength was subtracted by the data collected from the 655 nm wavelength to find the corrected OD for each sample's released and total LDH. The percent cytotoxicity was later calculated by the equation: (Sample OD released LDH−control OD released LDH)/(Sample OD total LDH−control OD released LDH)*100 and T-tests were applied to each group to measure significance for percent cytotoxicity.

monocyte = details: literature; cited from earlier work
colo 320 cells [4] = format: cell-based, human
colo 320 cells [5] = tested on: colo 320 cells

Row | SMILES | decrease in adhesion molecule expression (U937 cells [1]) | decrease of cell adhesion (U937 cells [1]) | effect on adhesion molecule expression, in words (U937 cells [1]) | decrease of caspase activity that was increased by SPK (U937 cells [2]) | effect on SPK caused apoptosis (caspase) (U937 cells [2]) | cytotoxicity decrease (U937 cells [3]) | effect on SPK-induced cytotoxicity at higher concentration (U937 cells [3]) | effect on cytotoxic effect of SPK (LDH) (U937 cells [3]) | monocyte cell adhesion (monocyte) | mitigation of SPK induced caspase apoptosis (colo 320 cells [4]) | mitigation of SPK induced cytotoxicity (colo 320 cells [5])
1 | C[C@H]1[C@H](OC(=O)CCC(=O)O)O[C@@H]2O[C@@]3(C)CC[C@H]4[C@H](C)CC[C@@H]1[C@@]24OO3 [A2, Artesunate] | around 68% | around 70% | significantly decreased the adhesion molecule expression | ~70% | decrease SPK caused apoptosis significantly | around 0.8% | the effectiveness decreased | reversed the cytotoxic effect of SPK from a positive value to a negative value | inhibit monocyte cell adhesion | remediate the increase in caspase apoptosis to a negative level | changed the cytotoxicity to a negative value
2 | C[C@@H]1CC[C@H]2[C@@H](C)C(=O)O[C@@H]3O[C@@]4(C)CC[C@@H]1[C@]32OO4 [A1, Artemisinin] | around 70% | about 73% | significantly decreased the adhesion molecule expression | around 68% | decrease SPK caused apoptosis significantly | around 2.4% | the effectiveness decreased | reversed the cytotoxic effect of SPK from a positive value to a negative value | inhibit monocyte cell adhesion | remediate the increase in caspase apoptosis to a negative level | changed the cytotoxicity to a negative value
